Read-outs that look alike come from different tables or passages of the source.
Columns and labels:
Format in all cases: cell-based
HepG2 = test: Proliferation assay; settings: for EC50: Homo sapiens, 96 h, 4 days
From the text: (§1) The cell lines HepG2 (ACC180, RRID:CVCL_0027; DMSZ, Braunschweig Germany), SNU-475 (CRL-2236, Lot. 58483227, RRID:CVCL_0497; ATCC, Manassas, Virginia, US), SNU-387 (CRL-2237, Lot. 58483192, RRID:CVCL_0250; ATCC, Virginia, US), PLC/PRF/5 (300315, Lot. 812, RRID:CVCL_0485; CLS Cell Lines Service GmbH, Eppelheim, Germany) and HuH-7 (JCRB0403, Lot. 2272008, RRID:CVCL_0336; JCRB Cell Bank, Japan) were propagated according to the distributor’s guidelines. The authenticity of the cell lines was confirmed by short tandem repeat (STR) analysis (DSMZ, Braunschweig, Germany). Mycoplasma contamination was ruled out by PCR testing. For assays with platelet lysate (PL), FBS was substituted with 10% PLTMax Human Platelet Lysate (Cat. Nr. SCM141, Lot Number VP1602259; Millipore, Burlington, Massachusetts, US). The PL was supplemented with 20 U/ml Heparin (Heparin sodium salt from porcine intestinal mucosa, H4784-250MG; Sigma-Aldrich, Taufkirchen, Germany) to prevent coagulation.
(§2) Prior to the assay, the optimal seeding density was determined for each cell line to obtain an exponential growth during the experiment (2000 to 6000 cells per 96-well). Drug dilution series with 8 concentrations were prepared for EC50 determinations of single drugs. Three wells for each concentration were seeded (technical replicates). For drug combinations, dilution series of six concentrations for each drug alone or in combination at equal ratio were prepared. After 4 h of cell seeding, the drugs were added to the cells. Each 96-well plate contained a vehicle control (0.1% or 0.2% DMSO), a death control Ro 106-9920 (Tocris Cookson Ltd., Bristol, UK) a growth control (untreated cells compared to vehicle treated cells), and blank wells without cells. The proliferation assay was stopped after 4 days by crystal violet staining of the cells (0.5% in 20% methanol). Following extraction of the crystal violet with 8% acetic acid, the eluates were quantified photometrically at 570 nm and the reference wavelength 690 nm in an absorbance microplate reader (Tecan Sunrise; Tecan, Männedorf, Switzerland). Only readouts from 96-well plates with a Z-factor between 0.5 and 1.0 were used. Blank OD values were subtracted from the mean OD values. Nonlinear curve fitting and EC50 calculation was performed with Excel Solver.

HuH-7 = test: Proliferation assay; settings: for EC50: Homo sapiens, 96 h, 4 days
From the text: as §1, §2

PLC/PRF/5 = test: Proliferation assay; settings: for EC50: Homo sapiens, 96 h, 4 days
From the text: as §1, §2

J82 = test: Efficacy screening assay; settings: J82, bladder
Experimental: (§3) The experiment was performed by Oncolead GmbH & Co. KG (Karlsfeld , Germany), based on a standardized screening procedure . Cell lines were purchased directly from the ATCC, NCI and DSMZ cell line c ollections. Cells used for the study had undergone less than 20 passages. To ensure the absence of potential contamination and wrong assignment, all cell lines were tested using a whole genome assay (Agilent, USA). All cell lines were grown as recommended by the suppliers and with addition of 100 U/mL penicillin G and 100 µg/mL; streptomycin. Cell growth and treatments were performed in Nunclon D 96 -well plates (NUNC, Germany). The optimal seeding density for each cell line was determined to ensure exponential growth for the duration of the experiment. All cells growing without anti-cancer agents were sub-conﬂuent by the end of the treatment, as determined by visual inspection.
(§4) After an initial 24 h pre-growth period, the compounds were added. The vehicle concentration […]
(§5) was 0.1% DMSO. After incubation at 37°C for 72 h, the culture medium was aspirated, and the cells were precipitated by the addition of 10% trichloroacetic acid (Sigma-Aldrich, Missouri, US). After overnight incubation at 4°C, the plates were washed three times with deionized water. The precipitates were then stained with SRB (0.4% wt/v sulforhodamine B solution in 1% acetic acid, Sigma-Aldrich, Missouri, US). Afterwards, the plates were washed six times with 1% acetic acid to remove unbound stain. After drying the plates at room temperature, the bound SRB was solubilized with 10 mM Tris base and the optical density was measured at 520 nm using a Victor2 plate reader (Perkin Elmer, Germany). Blank OD values were subtracted from mean OD values for each concentration. The nonlinear curve ﬁtting and EC50 calculations were per formed using XLﬁt and algorithm “205” (ID Business […]
(§6) Multiplicity adjusted p-values with 95% confidence interval was applied. For the invasion assays in Figure 4, one-way ANOVA with multiple comparison testing (Tukey) was performed. Multiplicity adjusted p-values with 95% confidence interval was applied. The adjusted p-values comparing vehicle control without vs. with platelets and compound

LOVO = test: Efficacy screening assay; settings: 72 h, colon
Experimental: as §3, §4, §5, §6

MDAMB435 = test: Efficacy screening assay; settings: MDAMB435, skin
Experimental: as §3, §4, §5, §6

MDAMB436 = test: Efficacy screening assay; settings: MDAMB436, breast
Experimental: as §3, §4, §5, §6

MDAMB468 = test: Efficacy screening assay; settings: MDAMB468, breast
Experimental: as §3, §4, §5, §6

MG63 = test: Efficacy screening assay; settings: MG63, bone
Experimental: as §3, §4, §5, §6

Question: For `CN(C)Cc1ccc(S(=O)(=O)n2ccc(/C=C/C(=O)NO)c2)cc1` [resminostat, Resminostat], which “Ratio PL/FBS” value (HepG2; HepG2, ratio of PL/FBS EC50s) is on record?
Answer: 1.0

Question: What about the EC50 (HepG2; HepG2, fetal bovine serum, read-out: EC50 in FBS) of the same molecule?
Answer: 0.5 ± 0.1 µM

Question: What about the EC50 (HepG2; HepG2, platelet lysate, read-out: EC50 in PL) of the same molecule?
Answer: 0.5 ± 0.3 µM

Question: What about the EC50 (HuH-7; HuH-7, fetal bovine serum, read-out: EC50 in FBS) of the same molecule?
Answer: 1 ± 0.3 µM

Question: What about the EC50 (HuH-7; HuH-7, platelet lysate, read-out: EC50 in PL) of the same molecule?
Answer: 1.3 ± 0.2 µM

Question: And the “Ratio PL/FBS” value (HuH-7; HuH-7, ratio of PL/FBS EC50s)?
Answer: 1.3

Question: What about the EC50 (PLC/PRF/5; PLC/PRF/5, fetal bovine serum, read-out: EC50 in FBS) of the same molecule?
Answer: 1.1 ± 0.2 µM

Question: And the EC50 (PLC/PRF/5; PLC/PRF/5, platelet lysate, read-out: EC50 in PL)?
Answer: 0.9 ± 0.1 µM

Question: What about the “effect of platelet factors on potency and efficacy” value (PLC/PRF/5; PLC/PRF/5, platelet lysate vs FBS dose-response curves (Fig. 2A)) of the same molecule?
Answer: unaffected

Question: And the “Ratio PL/FBS” value (PLC/PRF/5; PLC/PRF/5, ratio of PL/FBS EC50s)?
Answer: 0.8

Question: What about the EC50 (J82; Homo sapiens, J82, 72 h, log of EC50, negative, read-out: log(EC50) (converted)) of the same molecule?
Answer: 5.62 µM

Question: What about the EC50 (J82; Homo sapiens, J82, 72 h, read-out: EC50) of the same molecule?
Answer: 5.68 µM

Question: And the EC50 (J82; 72 h, read-out: EC50)?
Answer: 5.68 µM

Question: And the EC50 (LOVO; Homo sapiens, LoVo, log of EC50, negative, read-out: log(EC50) (converted))?
Answer: 1.05 µM

Question: What about the EC50 (LOVO; Homo sapiens, LoVo, read-out: EC50) of the same molecule?
Answer: 1.05 µM

Question: And the EC50 (LOVO; read-out: EC50)?
Answer: 1.05 µM

Question: What about the EC50 (MDAMB435; Homo sapiens, MDA-MB-435, 72 h, log of EC50, negative, read-out: log(EC50) (converted)) of the same molecule?
Answer: 2.09 µM

Question: What about the EC50 (MDAMB435; Homo sapiens, MDA-MB-435, 72 h, read-out: EC50) of the same molecule?
Answer: 2.11 µM

Question: What about the EC50 (MDAMB435; 72 h, read-out: EC50) of the same molecule?
Answer: 2.11 µM

Question: And the EC50 (MDAMB436; Homo sapiens, MDA-MB-436, 72 h, log of EC50, negative, read-out: log(EC50) (converted))?
Answer: 7.08 µM

Question: And the EC50 (MDAMB436; Homo sapiens, MDA-MB-436, 72 h, read-out: EC50)?
Answer: 7.15 µM

Question: And the EC50 (MDAMB436; 72 h, read-out: EC50)?
Answer: 7.15 µM

Question: What about the EC50 (MDAMB468; Homo sapiens, MDA-MB-468, 72 h, log of EC50, negative, read-out: log(EC50) (converted)) of the same molecule?
Answer: 2.29 µM

Question: What about the EC50 (MDAMB468; Homo sapiens, MDA-MB-468, 72 h, read-out: EC50) of the same molecule?
Answer: 2.3 µM

Question: What about the EC50 (MDAMB468; 72 h, read-out: EC50) of the same molecule?
Answer: 2.3 µM

Question: And the EC50 (MG63; Homo sapiens, MG-63, 72 h, log of EC50, negative, read-out: log(EC50) (converted))?
Answer: 1.74 µM

Question: And the EC50 (MG63; Homo sapiens, MG-63, 72 h, read-out: EC50)?
Answer: 1.76 µM

Question: And the EC50 (MG63; 72 h, read-out: EC50)?
Answer: 1.75 µM

From paper PMC8100298, “Histone deacetylase inhibitor resminostat in combination with sorafenib counteracts platelet-mediated pro-tumoral effects in hepatocellular carcinoma” (Scientific Reports, 2021)
